How the values were obtained:
Assay in all cases: relative viability (nuclei count vs DMSO), 5 days (fraction); higher = more cells survive
Ispinesib = compound: Cc1ccc(C(=O)N(CCCN)[C@@H](c2nc3cc(Cl)ccc3c(=O)n2Cc2ccccc2)C(C)C)cc1 [Ispinesib]
Method in brief: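 Lung cancer cell lines in 1536-well plates were kept overnight at 37 °C, then pinned with five library-drug doses (not always all listed) spaced by √10 on vehicle-anchored plates. After 5 days without medium change, cells were fixed, permeabilised and Hoechst-stained in one step, imaged at 4×, and nuclei were counted with MetaXpress. Viability is treated-well nuclei divided by vehicle-well nuclei, taken as the median over plates. Plates passed only with control CV below 25% and at least one doubling.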

Ispinesib + Pemetrexed = compound: Cc1ccc(C(=O)N(CCCN)[C@@H](c2nc3cc(Cl)ccc3c(=O)n2Cc2ccccc2)C(C)C)cc1 [Ispinesib] + Nc1nc2[nH]cc(CCc3ccc(C(=O)N[C@@H](CCC(=O)O)C(=O)O)cc3)c2c(=O)[nH]1 [Pemetrexed] (partner 0.2 µM)
Method in brief: (§1)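 Cells from lung cancer lines were seeded into 1536-well plates and, one day later, dosed by pin tool. Treatments were either a single drug or a fixed dose of an anchor drug with five library-drug doses (not always all listed) in √10 steps. After 5 days, nuclei were stained in a one-step fixation (final 0.05% Triton X-100, 1% formaldehyde, 1 ug/ml Hoechst) and counted on 4× images, and relative viability is the treated-to-vehicle nuclei ratio, as the median of duplicate plates.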

Linsitinib + Vorinostat = compound: C[C@]1(O)C[C@@H](c2nc(-c3ccc4ccc(-c5ccccc5)nc4c3)c3c(N)nccn32)C1 [Linsitinib] + O=C(CCCCCCC(=O)Nc1ccccc1)NO [Vorinostat] (partner 1 µM)
Method in brief: as §1

Linsitinib + Navitoclax = compound: C[C@]1(O)C[C@@H](c2nc(-c3ccc4ccc(-c5ccccc5)nc4c3)c3c(N)nccn32)C1 [Linsitinib] + CC1(C)CCC(c2ccc(Cl)cc2)=C(CN2CCN(c3ccc(C(=O)NS(=O)(=O)c4ccc(N[C@H](CCN5CCOCC5)CSc5ccccc5)c(S(=O)(=O)C(F)(F)F)c4)cc3)CC2)C1 [Navitoclax] (partner 0.5 µM)
Method in brief: as §1

| Cell Line | relative viability (Ispinesib; 0.001 µM) | relative viability (Ispinesib; 0.003162 µM) | relative viability (Ispinesib; 0.01 µM) | relative viability (Ispinesib; 0.03162 µM) | relative viability (Ispinesib; 0.1 µM) | relative viability (Ispinesib + Pemetrexed; first compound 0.001 µM) | relative viability (Ispinesib + Pemetrexed; first compound 0.003162 µM) | relative viability (Ispinesib + Pemetrexed; first compound 0.01 µM) | relative viability (Ispinesib + Pemetrexed; first compound 0.03162 µM) | relative viability (Ispinesib + Pemetrexed; first compound 0.1 µM) | relative viability (Linsitinib + Vorinostat; first compound 0.01 µM) | relative viability (Linsitinib + Vorinostat; first compound 0.03162 µM) | relative viability (Linsitinib + Vorinostat; first compound 0.1 µM) | relative viability (Linsitinib + Vorinostat; first compound 0.3162 µM) | relative viability (Linsitinib + Vorinostat; first compound 1 µM) | relative viability (Linsitinib + Navitoclax; first compound 0.01 µM) | relative viability (Linsitinib + Navitoclax; first compound 0.03162 µM) | relative viability (Linsitinib + Navitoclax; first compound 0.1 µM) | relative viability (Linsitinib + Navitoclax; first compound 0.3162 µM) | relative viability (Linsitinib + Navitoclax; first compound 1 µM) |
| --- | --- | --- | --- | --- | --- | --- | --- | --- | --- | --- | --- | --- | --- | --- | --- | --- | --- | --- | --- | --- |
| NCI-H441 | 1.06 | 1.1 | 0.765 | 0.272 | 0.297 | 0.245 | 0.286 | 0.299 | 0.2 | 0.171 | 0.904 | 0.829 | 0.84 | 0.556 | 0.547 | 0.803 | 0.795 | 1.12 | 0.397 | 0.439 |
| NCI-H520 | 0.977 | 0.997 | 0.903 | 0.341 | 0.251 | 0.768 | 0.75 | 0.721 | 0.231 | 0.211 | 0.802 | 0.689 | 0.722 |  | 0.695 | 1.15 | 0.685 | 1.1 |  | 0.893 |
| SW 900 | 0.858 | 0.995 | 1.05 | 0.683 | 0.283 | 0.482 | 0.516 | 0.525 | 0.469 | 0.189 | 0.627 | 0.436 | 0.458 | 0.285 | 0.272 |  |  |  |  |  |
| NCI-H1299 | 1.05 | 1.05 | 1.07 | 1.05 | 0.461 |  |  |  |  |  |  |  |  |  |  | 1.07 | 1.03 | 1.03 | 0.916 | 1.04 |
| NCI-H661 | 0.968 | 0.983 | 0.993 | 0.742 | 0.289 | 0.933 | 0.969 | 0.92 | 0.596 | 0.212 | 0.76 | 0.829 | 0.75 | 0.699 | 0.825 |  |  |  |  |  |
| Calu-6 | 1.15 | 0.996 | 0.689 | 0.18 | 0.19 |  |  |  |  |  |  |  |  |  |  | 0.826 | 0.688 | 0.843 | 0.629 | 0.572 |
| NCI-H522 | 0.965 | 1.13 | 1 | 0.815 | 0.48 | 0.961 | 0.975 | 0.859 | 0.586 | 0.364 | 0.892 | 1 | 0.791 | 0.499 | 0.727 |  |  |  |  |  |
| NCI-H650 | 1.01 | 1.14 | 1.02 | 0.629 | 0.212 | 1.1 | 1.02 | 0.933 | 0.609 | 0.238 | 0.438 | 0.359 | 0.432 |  | 0.394 |  |  |  |  |  |
| LCLC-103H | 1.05 | 1.07 | 1.04 | 0.691 | 0.601 | 0.475 | 0.474 | 0.446 | 0.449 | 0.352 | 0.775 | 0.68 | 0.836 | 0.429 | 0.605 |  |  |  |  |  |
| NCI-H1648 | 1.02 | 1.13 | 0.792 | 1.14 | 0.387 | 0.92 | 0.723 | 0.802 | 0.751 | 0.305 | 0.605 | 0.412 | 0.551 | 0.211 | 0.57 |  |  |  |  |  |
| NCI-H2342 | 0.986 | 0.942 | 1.04 | 0.935 | 0.638 | 0.772 | 0.813 | 0.924 | 0.751 | 0.468 | 0.689 | 0.707 | 0.764 | 0.727 | 0.756 |  |  |  |  |  |
| EBC-1 | 1.03 | 1.13 | 1.03 | 0.336 | 0.231 |  |  |  |  |  |  |  |  |  |  | 0.424 | 0.411 | 0.393 | 0.352 | 0.251 |
| IA-LM | 1.02 | 1.15 | 1.22 | 0.952 | 0.197 |  |  |  |  |  | 0.975 | 0.829 | 1.06 | 0.315 | 0.499 | 0.882 | 0.785 | 0.775 | 0.6 | 0.531 |
| NCI-H1703 | 1.28 | 0.88 | 0.6 | 0.163 | 0.137 |  |  |  |  |  |  |  |  |  |  | 0.894 |  | 1.43 | 0.924 | 0.932 |
| NCI-H358 | 1.15 | 1 | 1 | 0.528 | 0.313 | 0.176 | 0.146 | 0.17 | 0.169 | 0.135 | 0.74 | 0.564 | 0.812 | 0.55 | 0.368 |  |  |  |  |  |
| A549 | 1.1 | 0.983 | 1.31 | 0.568 | 0.109 |  |  |  |  |  |  |  |  |  |  | 1.21 | 1.15 | 1.1 | 1.01 | 0.895 |
| NCI-H727 | 1.16 | 1.09 | 1.14 | 0.845 | 0.543 |  |  |  |  |  | 0.978 | 1.4 | 1.08 | 0.82 | 0.927 | 0.406 | 0.539 | 0.376 | 0.19 | 0.184 |
| NCI-H1623 | 1.07 | 1.03 | 1.05 | 1.02 | 0.722 |  |  |  |  |  |  |  |  |  |  |  |  |  |  |  |
| NCI-H1563 | 1.13 | 0.97 | 0.938 | 0.927 | 0.772 | 0.849 | 0.859 | 0.743 | 0.771 | 0.661 |  |  |  |  |  |  |  |  |  |  |
| NCI-H1792 | 1.18 | 1.31 | 0.995 | 0.492 | 0.329 | 1.05 | 1.15 | 0.903 | 0.448 | 0.135 |  |  |  |  |  | 0.553 | 0.597 | 0.5 | 0.54 | 0.438 |
| ABC-1 | 1.01 | 1.01 | 0.979 | 0.314 | 0.367 |  |  |  |  |  | 1.4 | 1.2 | 0.97 | 0.803 | 0.796 |  |  |  |  |  |

From the supplement of paper PMC10307832
